US20240116985A1, “STAPLED PEPTIDES AND METHODS THEREOF” (priority 2020, published 2024)

Assays:
[1] = biological target: T1, full-length beta-Catenin (Uniprot ID P35222) (Homo sapiens, UniProt P35222); experiment: Fluorescence polarization IC50 (beta-catenin / 5FAM-TCF4 10-53 competition); assay type: binding; details: fluorescence polarization; read-out: beta-Catenin FP IC50
T1 construct: 10 nM full-length beta-Catenin (Uniprot ID P35222)
T1 sequence (P35222 1-781): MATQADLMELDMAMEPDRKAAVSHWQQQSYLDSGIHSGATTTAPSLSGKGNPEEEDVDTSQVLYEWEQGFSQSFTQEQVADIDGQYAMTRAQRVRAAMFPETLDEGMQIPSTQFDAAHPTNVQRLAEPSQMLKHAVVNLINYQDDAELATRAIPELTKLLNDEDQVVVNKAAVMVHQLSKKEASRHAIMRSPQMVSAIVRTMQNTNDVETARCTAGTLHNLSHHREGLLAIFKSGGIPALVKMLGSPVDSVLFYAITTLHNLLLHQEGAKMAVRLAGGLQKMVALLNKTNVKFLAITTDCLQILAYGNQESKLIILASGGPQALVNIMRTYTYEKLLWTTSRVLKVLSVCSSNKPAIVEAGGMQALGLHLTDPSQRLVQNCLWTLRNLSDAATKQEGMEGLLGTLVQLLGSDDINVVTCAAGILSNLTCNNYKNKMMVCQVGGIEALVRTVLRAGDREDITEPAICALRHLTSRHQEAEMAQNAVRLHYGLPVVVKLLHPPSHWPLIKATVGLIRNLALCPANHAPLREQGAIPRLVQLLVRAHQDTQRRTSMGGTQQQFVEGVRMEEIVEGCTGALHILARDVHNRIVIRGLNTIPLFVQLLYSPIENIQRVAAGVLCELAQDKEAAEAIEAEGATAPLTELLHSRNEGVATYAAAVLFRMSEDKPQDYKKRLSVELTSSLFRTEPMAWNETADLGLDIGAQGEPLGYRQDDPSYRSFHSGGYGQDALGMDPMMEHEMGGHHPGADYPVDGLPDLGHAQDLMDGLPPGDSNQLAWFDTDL

[2] = biological target: T2, beta-catenin/TCF4 engagement (Homo sapiens, UniProt P35222); experiment: Nano-BRET target engagement assay (B-cat-Halo & TCF4-Luc in HEK293 cells); assay type: cell-based; details: absolute IC50; read-out: NanoBRET Abs IC50
T2 construct: expressed in transfected cells; host or cells: HEK293
T2 sequence (P35222 1-781): T1 sequence (P35222 1-781)

Row | SMILES | IC50 [1] [nM] | IC50 [2] [nM]
1 | CC(=O)N1CCC[C@]12CC=CCCCC1(CCCC=CCCCCCC[C@@](C)(C(=O)N[C@@H](Cc3ccsc3)C(=O)N[C@@H](Cc3csc4ccccc34)C(=O)N[C@@H](CCC(N)=O)C(N)=O)NC(=O)[C@H](CC(N)=O)NC(=O)[C@H](Cc3ccccc3)NC(=O)[C@H](C)NC(=O)[C@H](C)NC(=O)[C@H](CN(CCC(F)(F)F)CC(=O)O)NC(=O)[C@H](CC(=O)O)NC1=O)NC(=O)[C@H](CC(C)(C)C)NC(=O)[C@H](CC(=O)O)NC2=O (stereo partly drawn) [I-1625, Ac-PL3-Asp-Npg-B5-Asp-[Tfp]GA-Ala-Ala-Phe-Asn-S8-3Thi-BztA-Gln-NH2] | 52.5 | 29300
2 | CCN(CC(=O)O)C[C@@H]1NC(=O)[C@H](CC(=O)O)NC(=O)C2(CCCC=CCCCCCC[C@@](C)(C(=O)N[C@@H](Cc3ccsc3)C(=O)N[C@@H](Cc3csc4ccccc34)C(=O)N[C@@H](CCC(N)=O)C(N)=O)NC(=O)[C@H](CC(N)=O)NC(=O)[C@H](Cc3ccccc3)NC(=O)[C@H](C)NC(=O)[C@H](C)NC1=O)CCCC=CC[C@]1(CCCN1C(C)=O)C(=O)N[C@@H](CC(=O)O)C(=O)N[C@@H](CC(C)(C)C)C(=O)N2 (stereo partly drawn) [I-1627, Ac-PL3-Asp-Npg-B5-Asp-[Et]GA-Ala-Ala-Phe-Asn-S8-3Thi-BztA-Gln-NH2] | 57 | > 20000
3 | CCN(CC(=O)O)C[C@@H]1NC(=O)[C@H](CC(=O)O)NC(=O)C2(CCCC=CCCCCCC[C@@](C)(C(=O)N[C@@H](Cc3ccsc3)C(=O)N[C@@H](Cc3csc4ccccc34)C(=O)N[C@@H](CCC(N)=O)C(N)=O)NC(=O)[C@H](CC(N)=O)NC(=O)[C@H](Cc3ccccc3)NC(=O)[C@H](C)NC(=O)[C@H](C)NC1=O)CCCC=CC[C@]1(CCCN1C(C)=O)C(=O)N[C@@H](CC(=O)O)C(=O)N[C@@H](CC(C)(C)C)C(=O)N2 (stereo partly drawn) [I-1628, Ac-PL3-Asp-Npg-B5-Asp-[Et]GA-Ala-Ala-Phe-Asn-S8-3Thi-BztA-Gln-NH2] | 18 | > 20000
4 | CC(=O)N1CCC[C@]12CC=CCCCC1(CCCC=CCCCOC(=O)N3CC[C@@](C(=O)N[C@@H](Cc4ccsc4)C(=O)N[C@@H](Cc4csc5ccccc45)C(=O)N[C@@H](CCC(N)=O)C(N)=O)(C3)NC(=O)[C@H](CC(C)C)NC(=O)[C@H](Cc3ccccc3)NC(=O)[C@H](C)NC(=O)[C@H](C)NC(=O)[C@H](CN(CC(=O)O)Cc3ccccc3)NC(=O)[C@H](CC(=O)O)NC1=O)NC(=O)[C@H](CC(C)(C)C)NC(=O)[C@H](CC(=O)O)NC2=O (stereo partly drawn) [I-1630, Ac-PL3-Asp-Npg-B5-Asp-[Bn]GA-Ala-Ala-Phe-Leu-PyrS2-3Thi-BztA-Gln-NH2] | 11.5 | 5000
5 | CC(=O)N1CCC[C@]12CC=CCCCC1(CCCC=CCCCOC(=O)N3CC[C@@](C(=O)N[C@@H](Cc4ccsc4)C(=O)N[C@@H](Cc4csc5ccccc45)C(=O)N[C@@H](CCC(N)=O)C(N)=O)(C3)NC(=O)[C@H](CC(N)=O)NC(=O)[C@H](Cc3ccccc3)NC(=O)[C@H](C)NC(=O)[C@H](C)NC(=O)[C@H](CN(C)CC(=O)O)NC(=O)[C@H](CC(=O)O)NC1=O)NC(=O)[C@H](CC(C)(C)C)NC(=O)[C@H](CC(=O)O)NC2=O (stereo partly drawn) [I-1636, Ac-PL3-Asp-Npg-B5-Asp-[Me]GA-Ala-Ala-Phe-Asn-PyrS2-3Thi-BztA-Gln-NH2] | 17 | > 20000
6 | CC(=O)N1CCC[C@]12CC=CCCCC1(CCCC=CCCCOC(=O)N3CC[C@@](C(=O)N[C@@H](Cc4ccsc4)C(=O)N[C@@H](Cc4csc5ccccc45)C(=O)N[C@@H](CCC(N)=O)C(N)=O)(C3)NC(=O)[C@H](CC(N)=O)NC(=O)[C@H](Cc3ccccc3)NC(=O)[C@H](C)NC(=O)[C@H](C)NC(=O)[C@H](CN(C)CC(=O)O)NC(=O)[C@H](CC(=O)O)NC1=O)NC(=O)[C@H](CC(C)(C)C)NC(=O)[C@H](CC(=O)O)NC2=O (stereo partly drawn) [I-1637, Ac-PL3-Asp-Npg-B5-Asp-[Me]GA-Ala-Ala-Phe-Asn-PyrS2-3Thi-BztA-Gln-NH2] | 11 | > 20000
7 | CC(=O)N1CCC[C@]12CC=CCCCC1(CCCC=CCCCOC(=O)N3CC[C@@](C(=O)N[C@@H](Cc4ccsc4)C(=O)N[C@@H](Cc4csc5ccccc45)C(=O)N[C@@H](CCC(N)=O)C(N)=O)(C3)NC(=O)[C@H](CC(N)=O)NC(=O)[C@H](Cc3ccccc3)NC(=O)[C@H](C)NC(=O)[C@H](C)NC(=O)[C@H](CN(CC(=O)O)Cc3c(F)c(F)c(F)c(F)c3F)NC(=O)[C@H](CC(=O)O)NC1=O)NC(=O)[C@H](CC(C)(C)C)NC(=O)[C@H](CC(=O)O)NC2=O (stereo partly drawn) [I-1639, Ac-PL3-Asp-Npg-B5-Asp-[Pfbn]GA-Ala-Ala-Phe-Asn-PyrS2-3Thi-BztA-Gln-NH2] | 13 | 32900
8 | CC(=O)N1CCC[C@]12CC=CCCCC1(CCCC=CCCCOC(=O)N3CC[C@@](C(=O)N[C@@H](Cc4ccccc4)C(=O)N[C@@H](Cc4csc5ccccc45)C(=O)N[C@@H](CCC(N)=O)C(N)=O)(C3)NC(=O)[C@H](CC(C)C)NC(=O)[C@H](Cc3ccccc3)NC(=O)[C@H](C)NC(=O)[C@H](CCCCNC(C)C)NC(=O)[C@H](CCC(N)=O)NC(=O)[C@H](CC(=O)O)NC1=O)NC(=O)[C@H](CC1CCCCC1)NC(=O)[C@H](CC(N)=O)NC2=O (stereo partly drawn) [I-1648, Ac-PL3-Asn-Cha-B5-Asp-Gln-iPrLys-Ala-Phe-Leu-PyrS2-Phe-BztA-Gln-NH2] | 191 | > 20000

The next compounds have a lower IC50 [1] than those just listed; values first:

Row | IC50 [1] [nM] | IC50 [2] [nM] | SMILES
9 | 10 | 30100 | CC(=O)N1CCC[C@]12CC=CCCCC1(CCCC=CCCCOC(=O)N3CC[C@@](C(=O)N[C@@H](Cc4ccsc4)C(=O)N[C@@H](Cc4csc5ccccc45)C(=O)N[C@@H](CCC(N)=O)C(N)=O)(C3)NC(=O)[C@H](CC(C)C)NC(=O)[C@H](Cc3ccccc3)NC(=O)[C@H](C)NC(=O)[C@H](C)NC(=O)[C@H](CN(C)CC(=O)O)NC(=O)[C@H](CC(=O)O)NC1=O)NC(=O)[C@H](CC(C)(C)C)NC(=O)[C@H](CC(=O)O)NC2=O (stereo partly drawn) [I-1631, Ac-PL3-Asp-Npg-B5-Asp-[Me]GA-Ala-Ala-Phe-Leu-PyrS2-3Thi-BztA-Gln-NH2]
10 | 10 | 5200 | CC(=O)N1CCC[C@]12CC=CCCCC1(CCCC=CCCCOC(=O)N3CC[C@@](C(=O)N[C@@H](Cc4ccsc4)C(=O)N[C@@H](Cc4csc5ccccc45)C(=O)N[C@@H](CCC(N)=O)C(N)=O)(C3)NC(=O)[C@H](CC(C)C)NC(=O)[C@H](Cc3ccccc3)NC(=O)[C@H](C)NC(=O)[C@H](C)NC(=O)[C@H](CN(CCC(F)(F)F)CC(=O)O)NC(=O)[C@H](CC(=O)O)NC1=O)NC(=O)[C@H](CC(C)(C)C)NC(=O)[C@H](CC(=O)O)NC2=O (stereo partly drawn) [I-1633, Ac-PL3-Asp-Npg-B5-Asp-[Tfp]GA-Ala-Ala-Phe-Leu-PyrS2-3Thi-BztA-Gln-NH2]
11 | 9 | 16500 | CC(=O)N1CCC[C@]12CC=CCCCC1(CCCC=CCCCOC(=O)N3CC[C@@](C(=O)N[C@@H](Cc4ccsc4)C(=O)N[C@@H](Cc4csc5ccccc45)C(=O)N[C@@H](CCC(N)=O)C(N)=O)(C3)NC(=O)[C@H](CC(N)=O)NC(=O)[C@H](Cc3ccccc3)NC(=O)[C@H](C)NC(=O)[C@H](C)NC(=O)[C@H](CN(CCCC(F)(F)F)CC(=O)O)NC(=O)[C@H](CC(=O)O)NC1=O)NC(=O)[C@H](CC(C)(C)C)NC(=O)[C@H](CC(=O)O)NC2=O (stereo partly drawn) [I-1634, Ac-PL3-Asp-Npg-B5-Asp-[Tfb]GA-Ala-Ala-Phe-Asn-PyrS2-3Thi-BztA-Gln-NH2]
12 | 7 | 20600 | CC(=O)N1CCC[C@]12CC=CCCCC1(CCCC=CCCCOC(=O)N3CC[C@@](C(=O)N[C@@H](Cc4ccsc4)C(=O)N[C@@H](Cc4csc5ccccc45)C(=O)N[C@@H](CCC(N)=O)C(N)=O)(C3)NC(=O)[C@H](CC(N)=O)NC(=O)[C@H](Cc3ccccc3)NC(=O)[C@H](C)NC(=O)[C@H](C)NC(=O)[C@H](CN(CC(=O)O)Cc3ccccc3)NC(=O)[C@H](CC(=O)O)NC1=O)NC(=O)[C@H](CC(C)(C)C)NC(=O)[C@H](CC(=O)O)NC2=O (stereo partly drawn) [I-1635, Ac-PL3-Asp-Npg-B5-Asp-[Bn]GA-Ala-Ala-Phe-Asn-PyrS2-3Thi-BztA-Gln-NH2]
13 | 9 | 14500 | CC(=O)N1CCC[C@]12CC=CCCCC1(CCCC=CCCCOC(=O)N3CC[C@@](C(=O)N[C@@H](Cc4ccsc4)C(=O)N[C@@H](Cc4csc5ccccc45)C(=O)N[C@@H](CCC(N)=O)C(N)=O)(C3)NC(=O)[C@H](CC(N)=O)NC(=O)[C@H](Cc3ccccc3)NC(=O)[C@H](C)NC(=O)[C@H](C)NC(=O)[C@H](CN(CC(=O)O)Cc3c(F)c(F)c(F)c(F)c3F)NC(=O)[C@H](CC(=O)O)NC1=O)NC(=O)[C@H](CC(C)(C)C)NC(=O)[C@H](CC(=O)O)NC2=O (stereo partly drawn) [I-1638, Ac-PL3-Asp-Npg-B5-Asp-[Pfbn]GA-Ala-Ala-Phe-Asn-PyrS2-3Thi-BztA-Gln-NH2]
